In the NIST ThermoML archive (doi:10.1021/je100967k):

What was measured:
[1] = xn = mol fraction of the nth substance listed; details: 101 kPa, Liquid; for speed of sound: Pulse-echo method
[2] = refractive index (Na D-line) (dimensionless); xn = mol fraction of the nth substance listed; details: 101 kPa, Liquid, Standard Abbe refractometry

NCCO [2-aminoethan-1-ol] + CN1CCCC1=O
Details | mass density, [1] [kg/m3] | refractive index, [2] | speed of sound, [1] [m/s] | viscosity, [1] [mPa·s]
293.15 K, x2 = 0 | 1016.65 | 1.4525 | 1735.9 | 24.61
293.15 K, x2 = 0.1 | 1017.8 | 1.4546 | 1701.7 | 17.43
293.15 K, x2 = 0.209 | 1019.27 | 1.4567 | 1673.2 | 11.99
293.15 K, x2 = 0.3 | 1020.59 | 1.4587 | 1649.8 | 8.496
293.15 K, x2 = 0.4 | 1022.06 | 1.4604 | 1630.1 | 6.211
293.15 K, x2 = 0.5 | 1023.46 | 1.462 | 1613.2 | 4.761
293.15 K, x2 = 0.596 | 1024.91 | 1.4634 | 1599.1 | 3.622
293.15 K, x2 = 0.7 | 1026.57 | 1.4648 | 1587.7 | 2.883
293.15 K, x2 = 0.8 | 1028.4 | 1.4663 | 1578.6 | 2.401
293.15 K, x2 = 0.907 | 1030.5 | 1.4677 | 1571.4 | 2.089
303.15 K, x2 = 0 | 1008.74 | 1.4488 | 1703.7 | 14.96
303.15 K, x2 = 0.1 | 1009.8 | 1.4507 | 1668.1 | 10.93
303.15 K, x2 = 0.209 | 1011 | 1.4527 | 1638.4 | 7.985
303.15 K, x2 = 0.3 | 1012.1 | 1.4546 | 1613.8 | 5.834
303.15 K, x2 = 0.4 | 1013.5 | 1.4563 | 1593.6 | 4.433
303.15 K, x2 = 0.5 | 1014.9 | 1.4578 | 1576 | 3.752
303.15 K, x2 = 0.596 | 1016.3 | 1.4592 | 1561.2 | 2.822
303.15 K, x2 = 0.7 | 1018 | 1.4605 | 1549.8 | 2.296
303.15 K, x2 = 0.8 | 1019.7 | 1.4619 | 1540.5 | 1.95
303.15 K, x2 = 0.907 | 1021.72 | 1.4632 | 1532.7 | 1.725
313.15 K, x2 = 0 | 1000.77 | 1.4449 | 1671.2 | 9.839
313.15 K, x2 = 0.1 | 1001.6 | 1.4467 | 1634.1 | 7.429
313.15 K, x2 = 0.209 | 1002.38 | 1.4486 | 1603.1 | 5.559
313.15 K, x2 = 0.3 | 1003.2 | 1.4505 | 1578.6 | 4.278
313.15 K, x2 = 0.4 | 1004.2 | 1.452 | 1557.3 | 3.358
313.15 K, x2 = 0.5 | 1005.5 | 1.4534 | 1538.9 | 2.697
313.15 K, x2 = 0.596 | 1006.9 | 1.4548 | 1523.9 | 2.245
313.15 K, x2 = 0.7 | 1008.69 | 1.4561 | 1512.1 | 1.866
313.15 K, x2 = 0.8 | 1010.68 | 1.4575 | 1502.6 | 1.62
313.15 K, x2 = 0.907 | 1012.79 | 1.4588 | 1494.4 | 1.462
323.15 K, x2 = 0 | 992.75 | 1.4417 | 1638.8 | 6.902
323.15 K, x2 = 0.1 | 993.31 | 1.4434 | 1600.2 | 5.386
323.15 K, x2 = 0.209 | 994 | 1.4451 | 1568.9 | 4.159
323.15 K, x2 = 0.3 | 994.64 | 1.4466 | 1544.4 | 3.289
323.15 K, x2 = 0.4 | 995.6 | 1.4479 | 1521.5 | 2.625
323.15 K, x2 = 0.5 | 996.7 | 1.4493 | 1502 | 2.173
323.15 K, x2 = 0.596 | 998.14 | 1.4506 | 1486.7 | 1.883
323.15 K, x2 = 0.7 | 999.74 | 1.4519 | 1474.5 | 1.574
323.15 K, x2 = 0.8 | 1001.73 | 1.4533 | 1464.8 | 1.356
323.15 K, x2 = 0.907 | 1003.86 | 1.4545 | 1456.8 | 1.24
